In US12529694B2, “Human in vitro cardiotoxicity model” (Brown University, priority 2019, dated 2026):
pIC50: −log10 of the molar value. Like-named read-outs stand apart in the source and are kept apart here. Each block holds one compound with its values, some of them ahead of it.

How the values were obtained:
[1] = system: human cardiac fibroblasts; experiment: Biochemical myofibroblast activation of human cardiac fibroblasts, αSMA immunofluorescence normalized by vimentin; format: cell-based; details: 10 ng/ml TGF-β1 for forty-eight hours; passage 4 hCFs
Procedure: The inventors next assessed the ability of human cardiac fibroblasts to be further activated via biochemical stimulation by treating passage 4 human cardiac fibroblasts with 10 ng/ml TGF-β1 for forty-eight hours. Cells were fixed and fluorescently labeled for αSMA and vimentin.

hiPSC-CM microtissues = details: human
Text: Fabrication of microtissue mold hydrogels and 3D microtissue culture. Scaffold-free three-dimensional microtissues (spheroid in shape, also called spheroids and/or organoids) are generated using non-adhesive agarose gels with cylindrical microwells with hemispherical bottoms to guide self-assembly. Sterilized 2% (wt/vol) agarose is pipetted into molds designed for 24-well plates with 800-μm-diameter rounded pegs (Microtissues, Providence, RI, USA). After being cooled to room temperature (˜5 minutes), the agarose gels are separated from the molds and transferred to single wells of 24-well plates. For equilibration, 1 mL medium is added to each well. Hydrogels are equilibrated at least one hour or overnight at 37° C. in a humidified incubator with 5% CO2. […] Medium is then added to each well (5 ml), and cells are cultured for 6-8 days with electrical field stimulation with a 1 Hz, 10.0 V, 4.0 ms duration bipolar pulse train for the full three-dimensional culture period (C-Pace EP, IonOptix).
Optical mapping and automated action potential duration analysis. The inventors used an Olympus MVX10 microscope to image 1.2×1.2-mm^2 regions. […] Fluorescence images were filtered using nonlinear bilateral filter (spatial filter: 5×5 window, temporal filter: 21 point window) to preserve action potential upstrokes from blurring. Typically, four microtissues were recorded simultaneously/scan at this magnification. […] The pixels with action potentials were identified from Fast Fourier transformation (FFT) of fluorescence signals. After appropriate thresholding and image segmentation, the region of each microtissue was grouped and the fluorescence signals from the pixels in the same microtissue were average and used for action potential analysis.
Validation and screening of toxicants for arrhythmogenic risk. […] Concentrations are selected to span human exposure levels or blood serum levels and quantify dose-dependent changes over a wide range (with a goal of more than 10,000× change in concentration and at least 4-6 doses). […]

hiPSC-CMLP microtissues = system: hiPSC-CMLP microtissues
Text: Cardiomyocyte differentiation. The inventors differentiated cardiomyocytes (CMs) from human pluripotent stem cells; either human embryonic stem cells (hESCs, e.g. line RUES2) or human induced pluripotent stem cells (hiPSCs; Gibco human episomal iPSCs from CD34+ cord blood, ThermoFisher Scientific, NCRM-5 human episomal iPSCs from CD34+ cord blood, NIH Center for Regenerative Medicine, WTC11 GM25256 human episomal iPSCs from dermal fibroblasts, The Gladstone Institutes, UCSF) in high-density monolayer cultures. […] Human pluripotent stem cells were cultured on plates coated with truncated human vitronectin (Life Technologies) in Essential 8 medium (ThermoFisher). […] Medium was changed daily until initiation of differentiation (day 0), when cells were approximately 60-90% confluent. […] C-59 (Tocris) or 1 μM XAV939 (Tocris), all chemical Wnt inhibitors, at day 3. […] Some differentiating cells received 100 ng/ml neuregulin-1β (NRG1) daily on days 5-18 (until use in engineered tissues) and/or in engineered tissues. Some engineered tissues received 100 nM insulin-like growth factor 1 (IGF1) daily and/or 100 ng/ml NRG1 daily in engineered tissues. […] Some experiments used unpurified cells as controls and were matched for duration of culture for experiments. Cells undergoing metabolic-based lactate purification were assessed for density and beating visually, and left in the wells of the high-density monolayer cultures for lactate purification if density was high and beating was uniform across large areas of the wells. Cells not meeting these requirements for density and beating were replated at high density, 5-6×10^6 cells/cm^2 on Matrigel-coated 6 well plates in RPMI+B27 medium after 10-20 days of differentiation. All cells undergoing lactate purification were not fed for 4 days as a starvation period to encourage a switch in metabolism from glycolysis to oxidative phosphorylation in the cardiomyocytes, which are capable of this type of metabolism, while non-cardiomyocytes have a lower ability to switch the metabolic phenotype and therefore die, resulting in more pure populations of cardiomyocytes. […] Lactate purified cells were fed with RPMI+B27 until robust beating returned or appeared. Cardiac purity is assessed by flow cytometry analysis.
Fabrication of microtissue mold hydrogels and 3D microtissue culture. Scaffold-free three-dimensional microtissues (spheroid in shape, also called spheroids and/or organoids) are generated using non-adhesive agarose gels with cylindrical microwells with hemispherical bottoms to guide self-assembly. Sterilized 2% (wt/vol) agarose is pipetted into molds designed for 24-well plates with 800-μm-diameter rounded pegs (Microtissues, Providence, RI, USA). After being cooled to room temperature (˜5 minutes), the agarose gels are separated from the molds and transferred to single wells of 24-well plates. For equilibration, 1 mL medium is added to each well. Hydrogels are equilibrated at least one hour or overnight at 37° C. in a humidified incubator with 5% CO2. […]
Optical mapping and automated action potential duration analysis. […] Fluorescence images were filtered using nonlinear bilateral filter (spatial filter: 5×5 window, temporal filter: 21 point window) to preserve action potential upstrokes from blurring. Typically, four microtissues were recorded simultaneously/scan at this magnification.

rodents = details: greater sensitivity in female rats than male rats; increased with isoproterenol stimulation; cited from earlier work
[2] = Clinical exposure of ranolazine (FDA documentation); format: in vivo, human; details: dose of 1000 mg b.i.d., bracketed conversion
[3] = system: late sodium current (INa,late); details: read-out: IC50, late sodium current (INa,late) block; cited from earlier work
late ICa = details: cited from earlier work
INCX = details: cited from earlier work
peak ICa = details: cited from earlier work
[4] = cited from earlier work

Compound: TGF-β1: growth factor used for biochemical activation of human cardiac fibroblasts to a myofibroblast-like state
increase in normalized αSMA fluorescence compared to control [1]: 1.2 fold

action potential duration (hiPSC-CM microtissues; 100 nM): 120.1±10.5
average reduction of APD80 (hiPSC-CM microtissues; 100 nM): 45 ms
Compound: CC(C)NCC(O)c1ccc(O)c(O)c1 (stereo not drawn) [isoproterenol]

Compound: CC(C)(c1ccc(O)cc1)c1ccc(O)cc1 [BPA, bisphenol-A]
APDtri (APD80-APD30) (hiPSC-CMLP microtissues): shorter
concentration that shifts action potential duration measurements (hiPSC-CMLP microtissues): one
excitability, pacing at 0.5 Hz (hiPSC-CMLP microtissues): fails to evoke action potentials
APD30 and APD50 versus APD80 (hiPSC-CMLP microtissues; human, 20 min): APD30 and APD50 were shortened more than APD80
concentration promoting arrhythmias (rodents): 0.001 µM

Compound: COc1ccccc1OCC(O)CN1CCN(CC(=O)Nc2c(C)cccc2C)CC1 (stereo not drawn) [ranolazine]
APD changes over dose-response (hiPSC-CMLP microtissues): moderate APD changes within a safety criteria of QT prolongation
Cmax ([2]; read-out: mean steady-state Cmax [in blood serum]): 6 µM
Cmax ([2]; human, serum, read-out: 95% of Cmax values): 0.98 to 14.2 µM
pIC50 [3]: 5.23
pIC50 (late ICa): 4.30
pIC50 (INCX): 4.04
pIC50 (peak ICa): 3.53
mean steady-state Cmax [in blood serum] ([4]; dose of 1000 mg b.i.d.): 2569 ng/mL
therapeutic concentration ([4]; human, in vivo): 1 to 10 µM

Compound: Cn1c(=O)c2c(ncn2C)n(C)c1=O [caffeine]
action potential duration (hiPSC-CM microtissues; 5 mM): 90.5 ± 22.3 ms
